Measured values: patent US10287617B2, “Methods for in vitro—in vivo efficacy determination” (COLORADO STATE UNIVERSITY RESEARCH FOUNDATION, priority 2014, dated 2019)
≈ marks a conversion by molar mass, not a printed value. Entries after “also recorded” stand apart in the source; their conditions may differ. Like-named read-outs stand apart in the source and are kept apart here. Marks after values point to notes of the source that are not given here.

Key:
[1] = system: non-replicating M. tuberculosis H37Rv; assay: Low oxygen study, non-replicating bacilli; type: cell-based, Mycobacterium tuberculosis; conditions: for Log10 (CFU+/−SD): 96 h post-treatment; for % Growth Reduction: benzimidazoles at 4 μg/mL; for Log10 (CFU) Reduction: vs control
Experimental: The low oxygen studies were performed similar to those described previously (Lenaerts et al., Antimicrob. Agents Chemother. 2005; 49:2294-2301). Briefly, M. tuberculosis H37Rv were diluted to an O.D. 600 nm of 0.003 in 7H9 media containing Methylene Blue (1.5 μg/mL) and were grown in 16×125 mm Hungate tubes with rubber septa (VWR cat#89167-170). The tubes, with 11 mL of the diluted cultures were incubated at 37° C. under agitation (150 rpm). […] One week after the reduction of methylene blue, approximately 28 days from the start, drug treatment was initiated with the test and control drugs. Prior to treatment, an aliquot was removed and plated for a CFU count to serve as a control. Isoniazid and metronidazole were used in the studies as comparative controls.
Recovery of aliquots for plating and the addition of drugs were conducted through septa using syringes to maintain the low-oxygen conditions. Ninety-six hours post-treatment, 1 mL of the culture was removed from the oxygen depleted cultures, the aliquot was serial diluted and the dilutions were plated. Log10 CFUs were calculated for the different treatments and concentrations. Percentage growth reduction from the controls was calculated and reported.

[2] = system: M. tuberculosis H37Rv; type: cell-based; conditions: for MIC Alone: drug alone
[3] = system: Mycobacteria tuberculosis; assay: MIC and drug response curve type (Tables A and B); type: cell-based, Mycobacterium tuberculosis; conditions: for Curve: drug response curve type; for MIC: in µg/mL
Experimental: A drug concentration response curve can be generated by graphing the log10 drug concentrations (μg/mL) against the difference in growth between the drug-treated wells and control wells. See FIG. 3C, and FIG. 5 (entries for SB-P23D8 and SB-P26D9). A NREBA is indicative of bacteriostatic activity above the MIC.
(§1) Further analysis using the methods described herein was performed on the compounds found in Tables A and B (bold font compounds are shown in FIG. 11) resulting in the data found therein.
MIC values were determined for the benzimidazoles using a modified 96-well microplate Alamar Blue (resazurin) assay (MABA) (see Kumar et al., J. Med. Chem. 2011; 54:374-381; Collins and Franzblau, Antimicrob. Agents Chemother. 1997; 41:1004-1009). Dose response curves were generated from the MABA assay for compounds by graphing the log10 drug concentrations against the difference in growth between the drug-treated wells and control wells using GraphPad Prism Version 5.0d for Mac OS X (GraphPad Software, San Diego Calif., USA, www.graphpad.com). For time dose studies, bacterial growth in the presence of compound was monitored by the O.D. 600 nm. […] The values were plotted against time using GraphPad Prism Version 5.0d for Mac OS X (GraphPad Software, San Diego Calif., USA, www.graphpad.com).

[4] = system: M. tuberculosis H37Rv; assay: MIC / dose response by modified microplate Alamar Blue assay (MABA); type: cell-based, Mycobacterium tuberculosis; conditions: for drug concentration response curve (kill curve) type: FIG. 3; for MIC range: H37Rv and Erdman strains
[5] = system: M. tuberculosis; assay: Benzimidazoles activity tested in animals (animal models of infection, Table A); type: in vivo, mouse; conditions: for Efficacy Lung / Efficacy Spleen: Table A
Experimental: as §1
Compound efficacy was assessed in two murine models of infection based on the short term model described previously (Lenaerts et al., Antimicrob. Agents Chemother. 2003; 47:783-785). All aerosol infections were performed using a Middlebrook aerosol generation devise (Glas-Col, Terre Haute, Ind.).

[6] = system: M. tuberculosis H37Rv; assay: Growth inhibition / time dose curves (OD600 and CFU); type: cell-based, Mycobacterium tuberculosis; conditions: for concentrations at which bacterial growth was inhibited: O.D. 600 nm growth curves, 5 days
[7] = system: Vero cells; assay: Cytotoxicity assay (resazurin, 72 h); type: cell-based
Experimental: The cytotoxicity assay was performed as described previously^16. Briefly compounds were serially diluted in 96 well plates.

[8] = system: M. tuberculosis NHN382; assay: microbe, parasite or virus in culture; type: cell-based, Mycobacterium tuberculosis
[9] = system: M. tuberculosis NHN20; assay: microbe, parasite or virus in culture; type: cell-based, Mycobacterium tuberculosis
[10] = system: M. tuberculosis W210; assay: microbe, parasite or virus in culture; type: cell-based, Mycobacterium tuberculosis
[11] = system: M. tuberculosis Erdman; type: in vivo; conditions: 50 mg/kg b.i.d. (Inh q.d.); for Log10CFU Lungs / Log10CFU Spleen: day 15
[12] = Oxidative metabolic lability in human liver microsomes; conditions: 5 μM, 1 mg/mL microsomal protein, 20 min
Experimental: (§2) Microsomal fractions were prepared in the Drug Disposition Domain at DSAR Montpellier (371 rue du Pr. J. Blayac, 34184 Montpellier Cedex 04, France). […] The flavin-containing monooxygenases (FMO)-dependent reactions were run in the presence of bovine serum albumin (BSA, 0.1%) for the duration of 0 and 20 min (with or without microsomal proteins and/or cofactors). […] Following protein precipitation with acetonitrile and their removal by centrifugation, supernatant fluids were analyzed by LC/MS-MS.
(§3) Thermo Finnigan TSQ Quantum Ultra instrument, ESI positive ion ionization mode. Each compound is studied in duplicates. Results are expressed in percentage of lability (or total metabolism). Total metabolism=[1−(UC_Peak Area+Cofactor at T20)/(UC_Peak Area Reference at T0)]×100
(§4) The reactions were prepared as described and were run in the presence of bovine scrum albumin (BSA, 0.1%) for the duration of 0 and 20 min (with or without microsomal proteins and/or cofactors). Enzyme activity was stopped, the protein was precipitated and removed by centrifugation. The supernatant fluids were analyzed by LC/MS-MS. […] A Thermo Finnigan TSQ Quantum Ultra instrument, ESI positive ion ionization mode was used for MS/MS. Each compound was studied in duplicates. Results are expressed in percentage of lability (or total metabolism) using the following formula: Total metabolism=[1−(UC_Peak Area+Cofactor at T20)/(UC_Peak Area Reference at T0)]×100 where UC=Unchanged Compound; “Reference” sample was NADPH for liver microsomal preparation.

[13] = Oxidative metabolic lability in mouse liver microsomes; conditions: 5 μM, 1 mg/mL microsomal protein, 20 min
Experimental: as §2, §3, §4

[14] = system: M. tuberculosis TN587; assay: microbe, parasite or virus in culture; type: cell-based, Mycobacterium tuberculosis

SMILES: Cc1ncc([N+](=O)[O-])n1CCO [Metronidazole, reference compound]
- Log10 (CFU+/−SD) [1]: 4.83 ± 0.06
- % Growth Reduction [1]: 70%
- Log10 (CFU) Reduction [1]: 0.52

SMILES: CO[C@H]1/C=C/O[C@@]2(C)Oc3c(C)c(O)c4c(O)c(c(/C=N/N5CCN(C)CC5)c(O)c4c3C2=O)NC(=O)/C(C)=C\C=C\[C@H](C)[C@H](O)[C@@H](C)[C@@H](O)[C@@H](C)[C@H](OC(C)=O)[C@@H]1C [Rifampicin, reference compound]
- MIC In Combination ([2]; SB-P8B2 with rifampicin): 0.5 × MIC
- MIC Alone [2]: 1 × MIC

SMILES: CCN(CC)c1cc2[nH]c(C3CCCCC3)nc2cc1NC(=O)c1ccc(OC)cc1.O=C(O)/C=C/C(=O)O [SB-P1G10-FUM]
- Curve ([3]; Table B): Zonal
- MIC ([3]; Table B): 6.25

SMILES: CCN(CC)c1cc2[nH]c(C3CCCCC3)nc2cc1NC(=O)c1ccc(OC)cc1 [SB-P1G10]
- Curve ([3]; Table A): Zonal
- MIC ([3]; Table A): 3.13-6.25
- drug concentration response curve (kill curve) type [4]: narrow range of concentrations of effective bactericidal activity (NREBA) kill curve
- MIC range [4]: 3 to 6.25 µg/mL
- concentration range of bactericidal activity ([4]; drug concentration response curve): 0.5-4 fold of MIC
- Efficacy Lung [5]: No
- Efficacy Spleen [5]: No
- bacterial load in the lungs or spleen ([5]; any animal model of infection conducted): never reduced the bacterial load
- concentrations at which bacterial growth was inhibited [6]: none of the concentrations tested

SMILES: CCN(CC)c1cc2[nH]c(C3CCCCC3)nc2cc1NC(=O)c1ccc(N(C)C)cc1 [SB-P1G-A11]
- Curve ([3]; Table B): Zonal
- MIC ([3]; Table B): 12.5

SMILES: CCN(CC)c1cc2[nH]c(C3CCCCC3)nc2cc1NC(=O)c1cnccn1 [SB-P1G-A12]
- Curve ([3]; Table B): Zonal
- MIC ([3]; Table B): 12.5

SMILES: CCc1ccc(C(=O)Nc2cc3nc(C4CCCCC4)[nH]c3cc2N(CC)CC)cc1 [SB-P1G-A17]
- Curve ([3]; Table B): Zonal
- MIC ([3]; Table B): 1.56

SMILES: C=Cc1cccc(C(=O)Nc2cc3nc(C4CCCCC4)[nH]c3cc2N(CC)CC)c1 [SB-P1G-A21]
- Curve ([3]; Table B): Zonal
- MIC ([3]; Table B): 25

SMILES: CCCOCC(=O)Nc1cc2nc(C3CCCCC3)[nH]c2cc1N1CCCC1 [SB-P6B-A3]
- Curve ([3]; Table B): Zonal
- MIC ([3]; Table B): 12.5

SMILES: CCCCOC(=O)Nc1cc2nc(C3CCCCC3)[nH]c2cc1N1CCCC1 [SB-P8B2]
- Curve ([3]; Table A): Sigmoid
- MIC ([3]; Table A): .625
- drug concentration response curve (kill curve) type [4]: sigmoidal kill curves
- MIC range [4]: 0.39 to 0.78 µg/mL
- Efficacy Lung [5]: Yes (.243)
- Efficacy Spleen [5]: No
- Log10 (CFU+/−SD) [1]: 4.96 ± 0.18
- % Growth Reduction [1]: 59%
- Log10 (CFU) Reduction [1]: 0.39
- MIC In Combination ([2]; SB-P8B2 with rifampicin): 0.1 × MIC
- enhancement of activity in the presence of the other drug ([2]; SB-P8B2 with rifampicin): 8 fold
- ΣFIC ([2]; SB-P8B2 with rifampicin): 0.63
- MIC Alone [2]: 1 × MIC
- concentrations at which bacterial growth was inhibited [6]: > 0.31 µg/mL

SMILES: COc1ccc(C(=O)Nc2cc3nc(C4CCCCC4)[nH]c3cc2N(C)C)cc1 [SB-P17G-A16]
- Curve ([3]; Table A): Sigmoid
- MIC ([3]; Table A): .31
- Efficacy Lung [5]: Yes
- Efficacy Spleen [5]: Yes

SMILES: CN(C)c1cc2[nH]c(C3CCCCC3)nc2cc1NC(=O)c1ccc(OC(F)(F)F)c(F)c1F [SB-P17G-A33]
- Curve ([3]; Table A): Sigmoid
- MIC ([3]; Table A): .5-.625
- MIC ([4]; H37Rv): 0.39 ± 0.16 µg/mL (≈ 0.808 µM)
- Vero Cells (cytotoxicity IC50) ([7]; 72 h): >200 µg/mL
- cytotoxicity in Vero cells ([7]; at 200 μg/mL): not cytotoxic; also recorded: non-toxic
- MIC [8]: 0.37 ± 0.24 µg/mL (≈ 0.767 µM)
- MIC [9]: 0.39 ± 0.33 µg/mL (≈ 0.808 µM)
- Efficacy Lung [5]: Yes
- Efficacy Spleen [5]: Yes
- MIC [10]: 0.47 ± 0.22 µg/mL (≈ 0.974 µM)
- Δ Lungs (difference between means of Test and Control Groups) ([11]; IP): −2.10** Log10 CFU
- Δ Spleen (difference between means of Test and Control Groups) ([11]; IP): −3.36*** Log10 CFU
- Log10CFU Lungs ([11]; IP): 4.59 ± 0.71 Log10 CFU
- Log10CFU Spleen ([11]; IP): 1.60 ± .0 Log10 CFU
- Δ Lungs (difference between means of Test and Control Groups) ([11]; PO): −1.72*** Log10 CFU
- Δ Spleen (difference between means of Test and Control Groups) ([11]; PO): −2.49*** Log10 CFU
- Log10CFU Lungs ([11]; PO): 4.58 ± 0.21 Log10 CFU
- Log10CFU Spleen ([11]; PO): 1.40 ± 1.24 Log10 CFU
- Liver Microsome Lability Human [12]: 5%
- Liver Microsome Lability Mouse [13]: 17%
- reduction in number of viable bacteria ([6]; 1×MIC, day 2): 0.8-1.7 Log10 CFU
- MIC [14]: 0.31 ± 0 µg/mL (≈ 0.643 µM)

SMILES: CN(C)c1cc2[nH]c(C3CCCCC3)nc2cc1NC(=O)OCc1ccccc1 [SB-P17G-C4]
- Curve ([3]; Table B): Zonal
- MIC ([3]; Table B): 12.5

SMILES: COc1ccc(C(=O)Nc2cc3nc(C4CCCCC4)[nH]c3cc2Oc2ccc(F)cc2)cc1 [SB-P23D8]
- Curve ([3]; Table B): Zonal
- MIC ([3]; Table B): 3.13

SMILES: Cc1ccc(C(=O)Nc2cc3nc(C4CCCCC4)[nH]c3cc2Oc2ccc(F)cc2)cc1 [SB-P26D9]
- Curve ([3]; Table B): Zonal
- MIC ([3]; Table B): 1.56

SMILES: CC(C)(C)c1ccc(C(=O)Nc2cc3nc(C4CCCCC4)[nH]c3cc2Sc2ccccc2)cc1 [SB-P26F8]
- Curve ([3]; Table B): Zonal
- MIC ([3]; Table B): 25

SMILES: Cc1ccc(C(=O)Nc2cc3nc(C4CCCCC4)[nH]c3cc2Sc2ccccc2)cc1 [SB-P26F9]
- Curve ([3]; Table B): Zonal
- MIC ([3]; Table B): 6.25

SMILES: CC(C)(C)c1ccc(C(=O)Nc2cc3nc(C4CCCCC4)[nH]c3cc2SCc2ccccc2)cc1 [SB-P26H8]
- Curve ([3]; Table B): Zonal
- MIC ([3]; Table B): 25

SMILES: Cc1ccc(C(=O)Nc2cc3nc(Cc4ccccc4)[nH]c3cc2N(C)C)cc1 [SB-P27A9]
- Curve ([3]; Table B): Zonal
- MIC ([3]; Table B): 12.5

SMILES: CCC(CC)c1nc2cc(NC(=O)c3ccccc3OC)c(N(C)C)cc2[nH]1 [SB-P27C7]
- Curve ([3]; Table B): Zonal
- MIC ([3]; Table B): 6.25

SMILES: CCCN(CCC)c1cc2[nH]c(C3CCCCC3)nc2cc1NC(=O)OCCOCC [SB-oli-C8]
- Curve ([3]; Table B): Zonal
- MIC ([3]; Table B): 6.25

SMILES: O=C(Nc1cc2nc(C3CCCCC3)[nH]c2cc1N1CCCC1)OCc1ccccc1 [SBP8B4]
- Curve ([3]; Table A): Sigmoid
- MIC ([3]; Table A): 3.13
- Efficacy Lung [5]: None
- Efficacy Spleen [5]: None
